Values quoted from earlier work in patent US20070212428A1, “METHODS AND COMPOSITIONS FOR TREATING MOOD DISORDER” (MOOD MANAGEMENT SCIENCES, INC., priority 2004, published 2007).
Where a name gives a salt, the structure may show the parent alone. Read-outs that look alike come from different tables or passages of the source.

Key:
[1] = test system: norepinephrine neuronal reuptake; details: cited from earlier work
[2] = test system: dopamine neuronal reuptake; details: cited from earlier work
[3] = test system: GABA uptake or degradation; details: cited from earlier work
GABAA or GABAB = details: cited from earlier work
[4] = test system: central presynaptic a2 adrenergic inhibitory autoreceptors and heteroreceptors; details: cited from earlier work
[5] = test system: serotonin 5-HT2 and 5-HT3 receptors; details: cited from earlier work
[6] = test system: 5-HT1A and 5-HT1B receptors; details: cited from earlier work
histamine H1 receptor [7] = molecular target: T1, histamine H1 receptor (Homo sapiens, UniProt P35367); details: cited from earlier work
[8] = test system: peripheral al adrenergic and muscarinic receptors; details: cited from earlier work
serotonin reuptake site = serotonin reuptake site (Homo sapiens, UniProt P31645); details: cited from earlier work
[9] = test system: cholinergic muscarinic receptors; details: cited from earlier work
[10] = molecular target: serotonin 5-HT2A receptor (Homo sapiens, UniProt P28223); details: cited from earlier work
[11] = cited from earlier work; for oral absorption (in words): oral administration; for time to peak plasma concentration: after oral dosing; for elimination half-life: plasma
[12] = cited from earlier work
monoamine oxidase = details: cited from earlier work
[13] = test system: dopaminergic, adrenergic, cholinergic, or histaminergic receptors; details: in vitro; cited from earlier work
human plasma proteins = details: cited from earlier work
bipolar I patients = details: cited from earlier work
status epilepticus = details: add-on therapy with other anti-epileptic drugs; cited from earlier work
[14] = test system: GABAA, BZD, and β adrenergic receptors; details: cited from earlier work
[15] = human, in vivo; cited from earlier work
anxiety and depression = details: human, in vivo; cited from earlier work
[16] = test system: cholinergic, muscarinic, and benzodiazepine receptors; details: cited from earlier work
[17] = test system: serotonin 5-HT1C, 5-HT1D and 5-HT1A receptors; details: cited from earlier work
[18] = test system: dopamine D1 and haloperidol-sensitive sigma site; details: cited from earlier work
[19] = test system: cholinergic muscarinic or β1 and β2 adrenergic receptors; details: cited from earlier work
[20] = test system: neuronal serotonin reuptake; details: cited from earlier work
[21] = test system: uptake of glutamate, or choline; details: cited from earlier work
[22] = test system: dopamine D1 and D2, muscarinic, serotonin 5HT1A, 5HT2, 5HT3, β-1 and 2 adrenergic, α-1 and α-2 adrenergic, histamine H2 and H3, adenosine A1 and A2, opiate μ …; details: cited from earlier work
[23] = test system: histamine H1, serotonin 5HT1B, benzodiazepine, and chloride channel receptors; details: cited from earlier work
[24] = test system: dopamine D2 and D3, serotonin 5-HT2A, 5-HT2C, 5-HT1D and α-adrenergic receptors; details: cited from earlier work
histamine H1 receptor [25] = molecular target: T1, histamine H1 receptor; details: cited from earlier work; remark: listed apart in the source
[26] = test system: D2, 5-HT2A, and 5-HT1D receptors; details: cited from earlier work
5-HT1A receptor = 5-HT1A receptor (Homo sapiens, UniProt P08908); details: cited from earlier work
[27] = test system: other receptor/binding sites tested, including the cholinergic muscarinic receptor; details: cited from earlier work
[28] = maintenance treatment over eighteen months
[29] = quetiapine fumarate (150 mg BID) and divalproex (500 mg BID)

T1 sequence (P35367 whole entry, species assumed): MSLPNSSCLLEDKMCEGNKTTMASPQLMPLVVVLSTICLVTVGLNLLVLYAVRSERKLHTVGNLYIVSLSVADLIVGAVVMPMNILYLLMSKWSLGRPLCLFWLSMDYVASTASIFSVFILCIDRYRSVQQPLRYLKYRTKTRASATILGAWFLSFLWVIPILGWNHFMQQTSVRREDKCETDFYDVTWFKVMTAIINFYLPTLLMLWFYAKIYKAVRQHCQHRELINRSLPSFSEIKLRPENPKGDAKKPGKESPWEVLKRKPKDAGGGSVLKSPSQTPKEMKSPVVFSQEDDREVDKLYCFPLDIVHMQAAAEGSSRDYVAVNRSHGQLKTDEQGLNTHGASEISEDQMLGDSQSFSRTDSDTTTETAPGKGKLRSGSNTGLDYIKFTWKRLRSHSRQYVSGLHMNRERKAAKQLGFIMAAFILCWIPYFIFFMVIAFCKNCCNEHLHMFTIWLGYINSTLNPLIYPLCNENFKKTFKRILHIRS
Sequence of serotonin reuptake site (P31645 whole entry): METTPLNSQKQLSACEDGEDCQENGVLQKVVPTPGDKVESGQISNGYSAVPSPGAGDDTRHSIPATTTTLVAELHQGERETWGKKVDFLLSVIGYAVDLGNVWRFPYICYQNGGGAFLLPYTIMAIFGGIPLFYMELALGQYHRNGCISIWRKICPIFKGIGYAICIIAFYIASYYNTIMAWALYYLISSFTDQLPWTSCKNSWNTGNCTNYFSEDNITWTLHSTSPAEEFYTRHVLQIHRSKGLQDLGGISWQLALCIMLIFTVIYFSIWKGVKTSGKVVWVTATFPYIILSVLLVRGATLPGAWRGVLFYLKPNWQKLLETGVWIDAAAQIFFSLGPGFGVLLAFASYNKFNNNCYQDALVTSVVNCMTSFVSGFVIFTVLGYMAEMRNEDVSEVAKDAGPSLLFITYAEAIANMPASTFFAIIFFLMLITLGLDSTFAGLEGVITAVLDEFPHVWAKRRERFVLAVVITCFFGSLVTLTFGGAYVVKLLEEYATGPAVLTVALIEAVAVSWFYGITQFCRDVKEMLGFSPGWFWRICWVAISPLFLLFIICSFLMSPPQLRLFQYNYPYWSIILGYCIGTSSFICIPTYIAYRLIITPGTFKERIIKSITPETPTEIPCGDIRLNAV
Sequence of serotonin 5-HT2A receptor (P28223 whole entry): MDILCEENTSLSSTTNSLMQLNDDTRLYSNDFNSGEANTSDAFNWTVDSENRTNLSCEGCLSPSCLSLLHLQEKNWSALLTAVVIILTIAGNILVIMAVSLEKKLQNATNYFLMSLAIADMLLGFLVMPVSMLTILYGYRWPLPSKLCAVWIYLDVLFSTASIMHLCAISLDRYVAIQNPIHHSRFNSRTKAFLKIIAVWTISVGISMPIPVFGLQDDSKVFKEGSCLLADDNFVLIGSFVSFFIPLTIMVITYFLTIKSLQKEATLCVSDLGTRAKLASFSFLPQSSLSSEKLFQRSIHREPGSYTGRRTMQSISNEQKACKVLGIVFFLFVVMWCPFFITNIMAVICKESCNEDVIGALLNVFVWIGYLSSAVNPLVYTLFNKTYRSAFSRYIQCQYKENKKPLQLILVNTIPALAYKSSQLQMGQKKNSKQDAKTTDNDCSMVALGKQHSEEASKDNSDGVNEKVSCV
Sequence of 5-HT1A receptor (P08908 whole entry): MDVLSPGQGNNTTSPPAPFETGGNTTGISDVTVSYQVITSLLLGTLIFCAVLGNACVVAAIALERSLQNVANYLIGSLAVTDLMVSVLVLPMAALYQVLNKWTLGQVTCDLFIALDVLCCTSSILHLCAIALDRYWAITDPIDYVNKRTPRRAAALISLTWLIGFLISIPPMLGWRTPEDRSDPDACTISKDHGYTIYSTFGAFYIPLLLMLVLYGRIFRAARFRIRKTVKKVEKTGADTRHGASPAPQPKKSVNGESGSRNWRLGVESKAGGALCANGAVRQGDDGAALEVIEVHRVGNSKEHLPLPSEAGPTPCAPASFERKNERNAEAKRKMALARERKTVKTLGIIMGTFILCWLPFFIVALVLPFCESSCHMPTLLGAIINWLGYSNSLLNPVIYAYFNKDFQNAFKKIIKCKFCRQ

1-(aminoethyl)cyclohexaneacetic acid [gabapentin]
effect on norepinephrine reuptake (in words) [1]: does not alter
effect on dopamine reuptake (in words) [2]: does not alter
inhibition of GABA uptake or degradation [3]: not an inhibitor
effect on radioligand binding (GABAA or GABAB): does not modify

CN1CCN2c3ncccc3Cc3ccccc3C2C1 (racemic) [mirtazapine, 1,2,3,4,10,14b-hexahydro-2-mehtylpryazino [2.1-a] pyrido [2,3-c] benzazepine]
functional activity [4]: antagonist
functional activity [5]: potent antagonist
affinity [6]: no significant affinity
functional activity (histamine H1 receptor [7]): potent antagonist
functional activity [8]: moderate antagonist

O=C1CCc2ccc(OCCCCN3CCN(c4cccc(Cl)c4Cl)CC3)cc2N1 [aripiprazole, 7-[4-[4-(2,3-dichlorophenyl)-1-piperazinyl]butoxy]-3,4-dihydrocarbostyril]
affinity (serotonin reuptake site): moderate affinity
affinity [9]: no appreciable affinity
functional activity [10]: antagonist
oral absorption (in words) [11]: well absorbed
pharmacokinetics ([12]; lithium (1200-1800 mg/day) for 21 days with aripiprazole (30 mg/day)): did not result in clinically significant changes

CNCC[C@H](Oc1cccc2ccccc12)c1cccs1.Cl [duloxetine, (+)-(S)-N-methyl-γ-(1-naphthyloxy)-2-thiophenepropylamine hydrochloride]
inhibition of monoamine oxidase (monoamine oxidase): does not inhibit
affinity [13]: no significant affinity

CN(C)CCC[C@@]1(c2ccc(F)cc2)OCc2cc(C#N)ccc21 [escitalopram, S-(+)-1-[3-(dimethylamino)propyl]-1-(p-fluorophenyl)-5-phthalancarbonitrile oxalate]
effect on norepinephrine reuptake (in words) [1]: minimal effects
effect on dopamine reuptake (in words) [2]: minimal effects
time to peak plasma concentration [11]: about 5 hours
time to steady state plasma concentrations ([11]; daily dosing): a week
increase of half life in elderly patients ([11]; elderly patients): approximately 50%
elimination half-life [11]: 27 to 32 h
binding to human plasma proteins (human plasma proteins): approximately 56%

Nc1nnc(-c2cccc(Cl)c2Cl)c(N)n1 [lamotrigine, 3,5-diamino-6-(2,3-dichlorophenyl)-1,2,4-triazine]
delay of time to occurrence of a mood episode (bipolar I patients; approximately 200 mg/day, ranging from 100 mg/day to 400 mg/day): effective in delaying the time to occurrence of a mood episode
mood pole against which predominantly effective (bipolar I patients; [28]): predominantly effective against depression
prevention of mood episodes compared with placebo (bipolar I patients; [28]): superior to placebo
plasma concentration generally effective in controlling SE (status epilepticus): about 24 μg/ml

Cc1cc2c(s1)Nc1ccccc1N=C2N1CCN(C)CC1 [olanzapine, 2-methyl-4-(4-methyl-1-piperazinyl)-10H-thieno[2,3-b][1,5]benzodiazepine]
binding [14]: binds weakly

NC(=O)N1c2ccccc2CC(=O)c2ccccc21 [oxcarbazepine, 10,11-dihydro-10-oxo-5H-dibenzo[b,f]azepine-5-carboxamide]
elimination half-life [11]: about 2 hours
tolerability of dose [15]: not be able to tolerate

CNCCCC1c2ccccc2C=Cc2ccccc21.Cl [protriptyline, N-methyl-5H-dibenzo[a,d]-cycloheptene-5-propanamine hydrochloride]
time to clinical effect (anxiety and depression): one week
time to significant plasma levels ([11]; human, in vivo): ≤ 2 h
oral absorption (in words) [11]: well absorbed

OCCOCCN1CCN(C2=Nc3ccccc3Sc3ccccc32)CC1 [quetiapine, 5-[2-(4-dibenzo[b,f][1,4]thiazepin-11-yl-1-piperazinyl)ethoxy]ethanol fumarate]
time to peak plasma concentration [11]: 1.5 h
elimination half-life [11]: about 6 hours
time to steady state plasma concentrations ([11]; repeated dosing): two
extent of absorption or mean oral clearance [12, 29]: without affecting
increase of mean maximum plasma concentration at steady state [12, 29]: 17%
steady-state pharmacokinetics ([12]; quetiapine fumarate (300 mg BID) with fluoxetine (60 mg once daily), haloperidol (7.5 mg BID) or risperidone (3 mg BID)): did not alter
affinity [16]: no appreciable affinity

Cc1nc2n(c(=O)c1CCN1CCC(c3noc4cc(F)ccc34)CC1)CCCC2 [risperidone, 3-[2-[4-(6-fluoro-1,2-benzisoxazol-3-yl)piperidino]ethyl]-2-methyl-6,7,8,9-tetrahydro-4H-pyrido-[1,2-a]pyrimidin-4-one]
affinity [17]: low to moderate affinity
affinity [18]: weak affinity
affinity [19]: no affinity

Cc1ccsc1C(=CCCN1CCC[C@@H](C(=O)O)C1)c1sccc1C [tiagabine, (−)-®-1-[4,4-Bis(3-methyl-2-thienyl)-3-butenyl]nipecotic acid hydrochloride]
inhibition of serotonin reuptake (in words) [20]: does not significantly inhibit
effect on norepinephrine reuptake (in words) [1]: does not significantly inhibit
effect on dopamine reuptake (in words) [2]: does not significantly inhibit
inhibition of uptake of glutamate or choline [21]: does not significantly inhibit
binding [22]: little or no binding
binding [23]: at concentrations greatly exceeding that is needed to inhibit the uptake of GABA
time to peak plasma concentration [11]: approximately 45 minutes
fraction excreted in the feces ([11]; as metabolites): 63%
fraction excreted renally ([11]; as metabolites): 25%
fraction excreted unchanged ([11]; human, in vivo): 2%
oral absorption (in words) [11]: rapid

O=C1Cc2cc(CCN3CCN(c4nsc5ccccc45)CC3)c(Cl)cc2N1 [ziprasidone, 5-[2-[4-(1,2-benzoisothiazol-3-yl)-1-piperazinyl]ethyl]-6-chloro-1,3-dihydro-2H-indol-2-one]
inhibition of serotonin reuptake (in words) [20]: inhibited
effect on norepinephrine reuptake (in words) [1]: inhibited
in vitro binding affinity [24]: high in vitro binding affinity
in vitro binding affinity (histamine H1 receptor [25]): moderate affinity
functional activity [26]: antagonist
functional activity (5-HT1A receptor): agonist
affinity [27]: No appreciable affinity
elimination half-life [11]: about 7 hours
time to steady state plasma concentrations ([11]; repeated dosing): one to three
